As usually defined, the Kd is the concentration at which binding is half-saturated.

This assay can be described thus: Blockade of CNGA1/CNGB1 expressed in Xenopus oocyte by electrophysiological method.
`CCCCNc1ccc(C(=O)OCCCN(CCCC)CCCC)cc1` registered a Kd of 1.3 µM.

`CCCCNc1ccc(C(=O)OCCCN(CC)CC)cc1` yielded an equilibrium dissociation constant (Kd) of 5.6 µM.

Regarding `CC(C)CNc1ccc(C(=O)OCCN(C)C)cc1`, the dissociation constant Kd came to 20 µM. Compared with the last compound, the Kd is about 3.6-fold higher.

Turning to `CCCCCCCCNc1ccc(C(=O)OCCN(C)C)cc1`, the affinity, expressed as Kd, was 1.3 µM.

The compound `CN(C)CCOC(=O)c1ccc(NC2CCCCC2)cc1` displayed a Kd of 17 µM.

As for `CCCCCCCCNc1ccc(C(=O)OCC[N+](C)(C)CC)cc1`, binding was characterised by a dissociation constant (Kd) of 1.6 µM. This Kd is about 11-fold lower than that of the compound before.

Turning to `CN(C)CCOC(=O)c1ccc(NCc2ccccc2)cc1`, the Kd came out at 16 µM.

Turning to `CCCCNc1ccc(C(=O)OCCCCN(C)C)cc1`, the affinity, expressed as Kd, was 7.1 µM.

In turn, `CCCCNc1ccc(C(=O)OCCN(CCCC)CCCC)cc1` registered a Kd of 1.1 µM.

Compound `CCCCNc1ccc(C(=O)OCCCN(C)C)cc1` had an equilibrium dissociation constant (Kd) of 5 µM.

With `CCCCCCNc1ccc(C(=O)OCCN(C)C)cc1`, the Kd worked out at 3.8 µM.

Compound `CCCCNc1ccc(C(=O)OCCN(CC)CC)cc1` [P-BUTYLAMINOBENZOYLDIETHYLAMINOETHYL] showed a dissociation constant Kd of 8.5 µM.

In turn, `CCCCNc1ccc(C(=O)OCCCCN(CCCC)CCCC)cc1` returned a Kd of 1.3 µM.

The values above are taken from ChEMBL document CHEMBL1140802 (Bioorg Med Chem Lett, 2008).
